Measured values taken from ChEMBL document CHEMBL1201862, “PubChem BioAssay data set” (2004).
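Growth conditions: 96-well plates. Treatment: test compound, 48 hours, 5 concentrations. Analysis: linear interpolation between bracketing concentrations; unreached endpoints set to highest concentration. GI50: concentration for 50% inhibition of growth.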 Active and inactive are the calls of the source. Cut-off read from the data, not from the text of the source: active = GI50 up to about 1.1 µM and inactive = higher.

Tests used:
Assay in all cases: growth of human tumour cells (NCI), 48 h
786-0 = system: 786-0
CCRF-CEM = system: CCRF-CEM
HOP-62 = system: HOP-62
IGROV-1 = system: IGROV-1
NCI-H23 = system: NCI-H23
NCI-H460 = system: NCI-H460
NCI-H522 = system: NCI-H522
OVCAR-3 = system: OVCAR-3
SK-MEL-2 = system: SK-MEL-2
SN12C = system: SN12C
SW-620 = system: SW-620
TK-10 = system: TK-10
U-251 = system: U-251
UACC-62 = system: UACC-62
UO-31 = system: UO-31
HOP-92 = system: HOP-92
NCI-H226 = system: NCI-H226
LOX IMVI = system: LOX IMVI

Measured: GI50

CCOC(=O)c1cc(C(=O)O)c(=O)n2c1[nH]c1ccccc12
inactive: 786-0 > 100 µM | CCRF-CEM > 100 µM | HOP-62 > 100 µM | IGROV-1 88.9 µM | NCI-H23 26.9 µM | NCI-H460 89.9 µM | NCI-H522 26.7 µM | OVCAR-3 > 100 µM | SK-MEL-2 > 100 µM | SN12C > 100 µM | SW-620 > 100 µM | TK-10 > 100 µM | U-251 83.4 µM | UACC-62 44.5 µM | UO-31 23.9 µM

O=C(O)C1=C(O)C(C(=O)O)C23CCCCCCCCCCC12C(C(=O)O)C(O)=C3C(=O)O (stereo not drawn)
inactive: 786-0 > 100 µM | CCRF-CEM > 100 µM | HOP-92 > 100 µM | IGROV-1 > 100 µM | NCI-H226 > 100 µM | NCI-H23 > 100 µM | NCI-H460 > 100 µM | NCI-H522 > 100 µM | OVCAR-3 > 100 µM | SK-MEL-2 > 100 µM | SN12C > 100 µM | SW-620 > 100 µM | TK-10 > 100 µM | U-251 > 100 µM | UO-31 > 100 µM

C#CCN(N=O)C(=O)NCCCCC(NC(C)=O)C(=O)NCc1ccccc1 (stereo not drawn)
inactive: 786-0 > 100 µM | CCRF-CEM 28.4 µM | HOP-62 > 100 µM | HOP-92 > 100 µM | IGROV-1 > 100 µM | LOX IMVI > 100 µM | NCI-H226 > 100 µM | NCI-H23 > 100 µM | NCI-H460 > 100 µM | NCI-H522 25.5 µM | OVCAR-3 > 100 µM | SN12C > 100 µM | SW-620 > 100 µM | TK-10 > 100 µM | U-251 > 100 µM | UACC-62 > 100 µM | UO-31 > 100 µM

CC1(S)CC2C(CC1Sc1ccccc1)C2(C)C (stereo not drawn)
inactive: 786-0 > 100 µM | CCRF-CEM > 100 µM | HOP-92 > 100 µM | IGROV-1 > 100 µM | NCI-H226 > 100 µM | NCI-H23 > 100 µM | NCI-H460 > 100 µM | OVCAR-3 > 100 µM | SK-MEL-2 > 100 µM | SN12C > 100 µM | TK-10 > 100 µM | U-251 > 100 µM | UO-31 > 100 µM

CS(=O)(=O)OC1CCC2(C#N)CCC1C2=O (stereo not drawn)
inactive: 786-0 79.6 µM | CCRF-CEM > 100 µM | HOP-62 > 100 µM | IGROV-1 > 100 µM | LOX IMVI > 100 µM | NCI-H226 > 100 µM | NCI-H23 > 100 µM | NCI-H460 95.3 µM | NCI-H522 86.5 µM | OVCAR-3 > 100 µM | SK-MEL-2 > 100 µM | SN12C > 100 µM | TK-10 > 100 µM | U-251 > 100 µM | UACC-62 > 100 µM | UO-31 > 100 µM

Cc1cccc(NC(=O)C(=O)C(C2OC(=O)c3ccccc32)[N+](=O)[O-])c1C (stereo not drawn)
inactive: 786-0 10.2 µM | CCRF-CEM 3.52 µM | HOP-62 17.2 µM | IGROV-1 9.82 µM | LOX IMVI 2.4 µM | NCI-H226 12.6 µM | NCI-H23 5.46 µM | NCI-H460 6 µM | NCI-H522 2 µM | OVCAR-3 2.08 µM | SK-MEL-2 5.06 µM | SN12C 6.34 µM | SW-620 5.57 µM | TK-10 18 µM | U-251 3.64 µM | UACC-62 10.9 µM | UO-31 9.53 µM

COC(=O)CC1NC(=O)C1C1(C)OCCO1 (stereo not drawn)
inactive: 786-0 > 100 µM | HOP-62 > 100 µM | IGROV-1 > 100 µM | LOX IMVI > 100 µM | NCI-H226 > 100 µM | NCI-H23 > 100 µM | NCI-H460 > 100 µM | OVCAR-3 > 100 µM | SK-MEL-2 > 100 µM | SN12C > 100 µM | SW-620 > 100 µM | TK-10 > 100 µM | U-251 > 100 µM | UACC-62 > 100 µM | UO-31 > 100 µM

Cc1ccc(/C=C/C(=O)C(C)C)cc1
inactive: 786-0 55 µM | CCRF-CEM 22.9 µM | HOP-92 41.8 µM | IGROV-1 92 µM | NCI-H23 46.6 µM | NCI-H460 44.7 µM | NCI-H522 24.8 µM | OVCAR-3 32.1 µM | SK-MEL-2 36.3 µM | SW-620 47.5 µM | TK-10 > 100 µM | U-251 24.5 µM | UACC-62 37.2 µM | UO-31 54.1 µM

COC(=O)c1cccc2c3ccccc3c3ccccc3c12
inactive: 786-0 42.8 µM | CCRF-CEM 27.5 µM | HOP-62 > 100 µM | IGROV-1 62.8 µM | LOX IMVI 29.4 µM | NCI-H226 > 100 µM | NCI-H23 23.1 µM | NCI-H522 36.4 µM | OVCAR-3 21.4 µM | SK-MEL-2 24.8 µM | SN12C 45.4 µM | SW-620 43.5 µM | TK-10 46.5 µM | U-251 26.1 µM | UACC-62 24.3 µM | UO-31 39.9 µM
